Patent US10195185B2, “3-(1H-imidazo[4,5-C]pyridin-2-yl)-1H-pyrazolo[4,3-B]pyridines and therapeutic uses thereof” (Samumed, LLC, priority 2015, dated 2019)

What was measured:
[1] = test system: IL-6 in human monocyte cell line (THP-1 cells); experiment: IL-6 inhibition in LPS-stimulated THP-1 cells (HTRF); format: cell-based; details: IL-6 in LPS-stimulated THP-1 cells; for EC50: HTRF; for inhibition at 10 µM: read-out: percent inhibition in brackets beside EC50 >10 μM
Summary of the method: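 Readout is the 665/620 nm HTRF ratio for secreted IL-6, normalized to DMSO wells, with EC50 from a variable-slope four-parameter fit, or % inhibition at 10 μM when above 10 μM. Cells (1% FBS, 24 h beforehand) got compound for 2 h, then LPS 500 ng/mL for 22 h at 37° C; top dose 10 μM, 0.1% DMSO.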

[2] = test system: primary human mesenchymal stem cells (hMSCs); experiment: Induction of chondrogenesis in hMSCs (nodule area, Rhodamine B / Nile Red); format: cell-based; details: TGF-β3 as positive control; for Emax: read-out: Max. Activity as % TGF-β3 activity; for EC50: concentration required to induce 50% levels of chondrogenesis, read-out: Conc (nM) of 50% TGF-β3 activity
Method: Representative compounds were screened using primary human mesenchymal stem cells (hMSCs) to determine their ability to induce chondrogenesis (process by which cartilage is developed).
Primary human mesenchymal stem cells (hMSCs) were purchased from Lonza (Walkersville, Md.) and expanded in Mesenchymal Stem Cell Growth Media (Lonza). Cells between passage 3 and 6 were used for the experiments.
Each compound was dissolved in DMSO as a 10 mM stock and used to prepare compound source plates. For the 96 well assay, serial dilution (1:3, 6-point dose-response curves from 2700 nM to 10 nM) and compound transfer was performed using the ECHO 550 (Labcyte, Sunnyvale, Calif.) into 96-well clear bottom assay plates (Greiner Bio-One) with appropriate DMSO backfill for a final DMSO concentration of 0.03%. hMSCs were plated at 20,000 cells/well in 250 μL/well Incomplete Chondrogenic Induction Medium (Lonza; DMEM, dexamethasone, ascorbate, insulin-transferrin-selenium [ITS supplement], gentamycin-amphotericin [GA-1000], sodium pyruvate, proline and L-glutamine). TGF-β3 (10 ng/mL) was used as a positive control for differentiation while negative control wells were treated with 75 nL DMSO for normalization and calculating EC50 values. For the 384 well assay, serial dilution (1:3, 8-point dose-response curves from 5000 nM to 2.2 nM) and compound transfer was performed using the ECHO 550 (Labcyte, Sunnyvale, Calif.) into 384-well clear bottom assay plates (Greiner Bio-One) with appropriate DMSO backfill for a final DMSO concentration of 0.03%. hMSCs were plated at 8,000 cells/well in 80 μL/well Incomplete Chondrogenic Induction Medium (Lonza; DMEM, dexamethasone, ascorbate, insulin-transferrin-selenium [ITS supplement], gentamycin-amphotericin [GA-1000], sodium pyruvate, proline and L-glutamine). TGF-β3 (10 ng/mL) was used as a positive control for differentiation while negative control wells were treated with 25 nL DMSO for normalization and calculating EC50 values. Cells were incubated at 37° C. and 5% CO2 for 6 days. To image chondrogenic nodules, the cells were fixed using 4% formaldehyde (Electron Microscopy Sciences), and stained with 2 μg/mL Rhodamine B (Sigma-Aldrich) and 20 μM Nile Red (Sigma-Aldrich) [Johnson K., et. al, A Stem Cell-Based Approach to Cartilage Repair, Science, (2012), 336(6082), 717-721]. The nodules imaged (25 images per well for 96 well plates and 9 images per well for 384 well plates at 10× magnification) by excitation at 531 nm and emission at 625 nm and quantified using the CellInsight CX5 (Thermo Scientific). Area of nodules in each well was normalized to the average of 3 DMSO treated wells on the same plate using Excel (Microsoft Inc.). The normalized averages (fold change over DMSO) of 2 or 3 replicate wells for each compound concentration were calculated. Due to solubility limitations of some of the compounds, curve fitting was incomplete leading to inaccurate EC50 determinations.
Using TGF-β3 as a positive control, the concentration of representative compounds required to induce 50% levels of chondrogenesis is reported. In addition, the maximum activity of each compound and the respective dose that each compound reached maximum chondrogenesis activity is reported.

EC50 [1] [nM] | EC50 [2] [nM] | SMILES | inhibition at 10 µM [1] [%] | Emax [2] [%]
> 10000 | 7 | CCC(=O)Nc1cncc(-c2ccc3[nH]nc(-c4nc5c(-c6cccs6)nccc5[nH]4)c3n2)c1 [Compound 337, N-(5-(3-(4-(Thiophen-2-yl)-1H-imidazo[4,5-c]pyridin-2-yl)-1H-pyrazolo [4,3-b]pyridin-5-yl)pyridin-3-yl)propionamide] | 0 | 179
> 10000 | 10 | CCCCC(=O)Nc1cncc(-c2ccc3[nH]nc(-c4nc5c(-c6ccoc6)nccc5[nH]4)c3n2)c1 [Compound 327, N-(5-(3-(4-(Furan-3-yl)-1H-imidazo[4,5-c]pyridin-2-yl)-1H-pyrazolo[4,3-b]pyridin-5-yl)pyridin-3-yl)pentanamide] | 22.5 | 91
2750 | 10 | CC(C)Nc1cncc(-c2ccc3[nH]nc(-c4nc5c(-c6cccnc6)nccc5[nH]4)c3n2)c1 [Compound 96, N-Isopropyl-5-(3-(4-(pyridin-3-yl)-1H-imidazo[4,5-c]pyridin-2-yl)-1H-pyrazolo[4,3-b]pyridin-5-yl)pyridin-3-amine] | – | 54
1240 | 30 | O=C(Cc1ccccc1)Nc1cncc(-c2ccc3[nH]nc(-c4nc5c(-c6ccncc6)nccc5[nH]4)c3n2)c1 [Compound 122, 2-phenyl-N-(5-(3-(4-(pyridin-4-yl)-1H-imidazo[4,5-c]pyridin-2-yl)-1H-pyrazolo[4,3-b]pyridin-5-yl)pyridin-3-yl)acetamide] | – | 74
> 10000 | – | CCNCc1cncc(-c2ccc3[nH]nc(-c4nc5c(-c6ccoc6)nccc5[nH]4)c3n2)c1 [Compound 314, N-((5-(3-(4-(Furan-3-yl)-1H-imidazo[4,5-c]pyridin-2-yl)-1H-pyrazolo[4,3-b]pyridin-5-yl)pyridin-3-yl)methyl)ethanamine] | 36 | 33
> 10000 | 10 | CC(C)C(=O)Nc1cncc(-c2ccc3[nH]nc(-c4nc5c(-c6ccccc6F)nccc5[nH]4)c3n2)c1 [Compound 65, N-(5-(3-(4-(2-fluorophenyl)-1H-imidazo[4,5-c]pyridin-2-yl)-1H-pyrazolo [4,3-b]pyridin-5-yl)pyridin-3-yl)isobutyramide] | 40.4 | 140
> 10000 | 10 | Clc1ccc(-c2nccc3[nH]c(-c4n[nH]c5ccc(-c6cncc(CN7CCCC7)c6)nc45)nc23)s1 [Compound 1049, 3-(4-(5-Chlorothiophen-2-yl)-1H-imidazo[4,5-c]pyridin-2-yl)-5-(5-(pyrrolidin-1-ylmethyl)pyridin-3-yl)-1H-pyrazolo [4,3-b]pyridine] | 13.2 | 59
> 10000 | 5000 | CCC(=O)Nc1cncc(-c2ccc3[nH]nc(-c4nc5c(-c6cccc(F)c6)nccc5[nH]4)c3n2)c1 [Compound 1, N-(5-(3-(4-(3-Fluorophenyl)-1H-imidazo[4,5-c]pyridin-2-yl)-1H-pyrazolo [4,3-b]pyridin-5-yl)pyridin-3-yl)propionamide] | 0 | 95
> 10000 | 2700 | Cc1ccncc1-c1ccc2[nH]nc(-c3nc4c(-c5ccncc5)nccc4[nH]3)c2n1 [Compound 117, 5-(4-Methylpyridin-3-yl)-3-(4-(pyridin-4-yl)-1H-imidazo[4,5-c]pyridin-2-yl)-1H-pyrazolo[4,3-b]pyridine] | 33.1 | 53
> 10000 | 900 | CC(C)C(=O)Nc1cncc(-c2ccc3[nH]nc(-c4nc5c(N6CCN(C)CC6)nccc5[nH]4)c3n2)c1 [Compound 233, N-(5-(3-(4-(4-Methylpiperazin-1-yl)-1H-imidazo[4,5-c]pyridin-2-yl)-1H-pyrazolo[4,3-b]pyridin-5-yl)pyridin-3-yl)isobutyramide] | 24 | 64
